The assay has as its target T1, human IL-17AA (Homo sapiens, UniProt Q16552).
T1 construct: host or cells: HEK (human embryonic kidney) cells
T1 sequence (Q16552 24-155) 1: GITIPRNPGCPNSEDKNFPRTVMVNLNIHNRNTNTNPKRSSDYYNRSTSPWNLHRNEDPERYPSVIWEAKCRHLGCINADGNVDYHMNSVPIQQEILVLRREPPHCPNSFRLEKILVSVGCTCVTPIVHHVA
T1 sequence (Q16552 24-155) 2: T1 sequence (Q16552 24-155) 1
The experiment in a line: IL-8 release assay in human epithelial keratinocytes adult (HEKa). In kind it is cell-based. Particulars: 3 ng/ml human IL-17AA + 10 ng/ml human TNFalpha, 68-72 h, IL-8 by HTRF, read-out: Rel EC50 L-8 release assay. In short, it runs like this:
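IL-8 secretion, quantified by HTRF (665/620 nm) as percent of controls, served as the readout after 68–72 h culture of HEKa cells with compound plus IL-17AA (3 ng/ml final) and TNF-alpha (10 ng/ml final). Four-parameter logistic curves gave relative IC50 and Emax.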

SMILES strings stand for the structures.

This passage reports EC50 results from patent US20220162191A1, “SMALL MOLECULE MODULATORS OF IL-17” (LEO PHARMA A/S, priority 2019, published 2022).

Regarding `Cc1cnn(C)c1-c1ccc(NC(=O)[C@H](Cc2cc(-c3ccc(=O)n(C(C)C)c3)ccc2Cl)NC(=O)C2(F)CCC2)cc1` [Example 331, N-[(1S)-1-[[2-chloro-5-(1-isopropyl-6-oxo-3-pyridyl)phenyl]methyl]-2-[4-(2,4-dimethylpyrazol-3-yl)anilino]-2-oxo-ethyl]-1-fluoro-cyclobutanecarboxamide], the concentration giving a half-maximal response (EC50) is less than 100 nM.
For the compound `Cc1n[nH]c(C)c1-c1ccc(NC(=O)[C@@H](NC(=O)C2(F)CC2)[C@@H]2CCc3ccc(-c4ccnc(N5C[C@@H]6C[C@H]5CO6)n4)cc32)cc1` [Example 367, N-[(1S)-2-[4-(3,5-dimethyl-1H-pyrazol-4-yl)anilino]-1-[(1R)-6-[2-[(1S,4S)-2-oxa-5-azabicyclo[2.2.1]heptan-5-yl]pyrimidin-4-yl]indan-1-yl]-2-oxo-ethyl]-1-fluoro-cyclopropanecarboxamide], the concentration giving a half-maximal response (EC50) was less than 100 nM.
For `Cc1ncn(C)c1-c1ccc(NC(=O)[C@H](Cc2cc(-c3cnn(C(C)(C)C#N)c3)ccc2Cl)NC(=O)c2ccnn2C)cc1` [Example 204, N-[(1S)-1-[[2-chloro-5-[1-(1-cyano-1-methyl-ethyl)pyrazol-4-yl]phenyl]methyl]-2-[4-(3,5-dimethylimidazol-4-yl)anilino]-2-oxo-ethyl]-2-methyl-pyrazole-3-carboxamide] the value was 100 to 1000 nM; for `Cn1cncc1-c1ccc(NC(=O)C(Cc2cc(-c3ccnc(N4CCCC4)c3)ccc2Cl)NC(=O)c2ccnn2C)cc1` (centres unmarked) [Example 146, N-[1-[[2-chloro-5-(2-pyrrolidin-1-yl-4-pyridyl)phenyl]methyl]-2-[4-(3-methylimidazol-4-yl)anilino]-2-oxo-ethyl]-2-methyl-pyrazole-3-carboxamide], 100 to 1000 nM; for `Cc1n[nH]c(C)c1-c1ccc(NC(=O)[C@@H](NC(=O)c2ccnn2C)[C@@H]2CCc3ccc(-c4ccc5c(c4)CCN(C)C5)cc32)cc1` [Example 15, N-[(1S)-2-[4-(3,5-dimethyl-1H-pyrazol-4-yl)anilino]-1-[(1R)-6-(2-methyl-3,4-dihydro-1H-isoquinolin-6-yl)indan-1-yl]-2-oxo-ethyl]-2-methyl-pyrazole-3-carboxamide], less than 100 nM.
`CC(C)n1cc(-c2ccc(Cl)c(C[C@H](NC(=O)CC3CCC3)C(=O)Nc3ccc(-c4nncn4C)cc3)c2)ccc1=O` [Example 127, (2S)-3-[2-chloro-5-(1-isopropyl-6-oxo-3-pyridyl)phenyl]-2-[(2-cyclobutylacetyl)amino]-N-[4-(4-methyl-1,2,4-triazol-3-yl)phenyl]propanamide]: the EC50 is greater than 1000 nM.
For `CC(C)CC(=O)N[C@@H](Cc1cc(-c2ccc(=O)n(C(C)C)c2)ccc1Cl)C(=O)Nc1ccc(-c2nncn2C)cc1` [Example 115, N-[(1S)-1-[[2-chloro-5-(1-isopropyl-6-oxo-3-pyridyl)phenyl]methyl]-2-[4-(4-methyl-1,2,4-triazol-3-yl)anilino]-2-oxo-ethyl]-3-methyl-butanamide] the value was greater than 1000 nM; for `Cc1nccn1-c1ccc(NC(=O)C(Cc2cc(-c3ccc(=O)n(C(C)C)c3)ccc2Cl)NC(=O)OC(C)(C)C)cc1` (centres unmarked) [Example 67, tert-butyl N-[1-[[2-chloro-5-(1-isopropyl-6-oxo-3-pyridyl)phenyl]methyl]-2-[4-(2-methylimidazol-1-yl)anilino]-2-oxo-ethyl]carbamate], 100 to 1000 nM; for `Cc1n[nH]c(C)c1-c1ccc(NC(=O)[C@@H](NC(=O)c2ccnn2C)[C@@H]2CCc3ccc(-c4ccc5c(c4)CCNC5)cc32)cc1` [Example 17, N-[(1S)-2-[4-(3,5-dimethyl-1H-pyrazol-4-yl)anilino]-2-oxo-1-[(1R)-6-(1,2,3,4-tetrahydroisoquinolin-6-yl)indan-1-yl]ethyl]-2-methyl-pyrazole-3-carboxamide], less than 100 nM.
For `Cc1n[nH]cc1-c1ccc(NC(=O)C(NC(=O)OC2CC2)C(c2ccccc2)c2cccc(-c3ccc(=O)n(C(C)C)c3)c2)cc1` (single isomer, unassigned; diastereomer 2) [Example 243, cyclopropyl N-[1-[[3-(1-isopropyl-6-oxo-3-pyridyl)phenyl]-phenyl-methyl]-2-[4-(3-methyl-1H-pyrazol-4-yl)anilino]-2-oxo-ethyl]carbamate (Diastereomer 2)], the EC50 lay in the range of 100 to 1000 nM.
As to `CC(C)n1cc(-c2ccc(Cl)c(CC(NC(=O)c3ccnn3C)C(=O)Nc3ccc(-c4nncn4C)cc3)c2)ccc1=O` (centres unmarked) [Example 62, N-[1-[[2-chloro-5-(1-isopropyl-6-oxo-3-pyridyl)phenyl]methyl]-2-[4-(4-methyl-1,2,4-triazol-3-yl)anilino]-2-oxo-ethyl]-2-methyl-pyrazole-3-carboxamide], the 50% effective concentration (EC50) was greater than 1000 nM.
With `Cc1cnn(C)c1-c1ccc(NC(=O)[C@H](Cc2cc(-c3ccc(=O)n(C(C)C)c3)ccc2Cl)NC(=O)C2CCC2)cc1` [Example 325, N-[(1S)-1-[[2-chloro-5-(1-isopropyl-6-oxo-3-pyridyl)phenyl]methyl]-2-[4-(2,4-dimethylpyrazol-3-yl)anilino]-2-oxo-ethyl]cyclobutanecarboxamide], the 50% effective concentration (EC50) was greater than 1000 nM.
For `Cn1cnnc1-c1ccc(NC(=O)C(Cc2cc(-c3ccc(O)c(CN4CCNCC4)c3)ccc2Cl)NC(=O)c2ccnn2C)cc1` (centres unmarked) [Example 157, N-[1-[[2-chloro-5-[4-hydroxy-3-(piperazin-1-ylmethyl)phenyl]phenyl]methyl]-2-[4-(4-methyl-1,2,4-triazol-3-yl)anilino]-2-oxo-ethyl]-2-methyl-pyrazole-3-carboxamide] the value was 100 to 1000 nM; for `CC(C)n1cc(-c2ccc(Cl)c(CC(NC(=O)c3ccnn3C)C(=O)Nc3ccc(-c4nn[nH]n4)cc3)c2)ccc1=O` (centres unmarked) [Example 66, N-[1-[[2-chloro-5-(1-isopropyl-6-oxo-3-pyridyl)phenyl]methyl]-2-oxo-2-[4-(2H-tetrazol-5-yl)anilino]ethyl]-2-methyl-pyrazole-3-carboxamide], greater than 1000 nM.
For `Cc1nocc1C(=O)NC(Cc1cc(-c2cccc(C(=O)N3CCC3)c2)ccc1Cl)C(=O)Nc1ccc(-c2nncn2C)cc1` (centres unmarked) [Example 113, N-[1-[[5-[3-(azetidine-1-carbonyl)phenyl]-2-chloro-phenyl]methyl]-2-[4-(4-methyl-1,2,4-triazol-3-yl)anilino]-2-oxo-ethyl]-3-methyl-isoxazole-4-carboxamide] the value was greater than 1000 nM; for `Cc1cnn(C)c1-c1ccc(NC(=O)[C@H](Cc2cc(-c3ccc(=O)n(C(C)C)c3)ccc2Cl)NC(=O)c2ccon2)cc1` [Example 337, N-[(1S)-1-[[2-chloro-5-(1-isopropyl-6-oxo-3-pyridyl)phenyl]methyl]-2-[4-(2,4-dimethylpyrazol-3-yl)anilino]-2-oxo-ethyl]isoxazole-3-carboxamide], 100 to 1000 nM.
Turning to `Cn1cncc1-c1ccc(NC(=O)C(Cc2cc(-c3ccnc(OCC4CC4)c3)ccc2Cl)NC(=O)c2ccnn2C)cc1` (centres unmarked) [Example 166, N-[1-[[2-chloro-5-[2-(cyclopropylmethoxy)-4-pyridyl]phenyl]methyl]-2-[4-(3-methylimidazol-4-yl)anilino]-2-oxo-ethyl]-2-methyl-pyrazole-3-carboxamide], the EC50 is 100 to 1000 nM.
For `Cc1n[nH]c(C)c1-c1ccc(NC(=O)[C@@H](NC(=O)c2ccnn2C)[C@@H]2CCc3ccc(-n4cnc(C(C)C)c4)cc32)cc1` [Example 361, N-[(1S)-2-[4-(3,5-dimethyl-1H-pyrazol-4-yl)anilino]-1-[(1R)-6-(4-isopropylimidazol-1-yl)indan-1-yl]-2-oxo-ethyl]-2-methyl-pyrazole-3-carboxamide] the value was 100 to 1000 nM; for `Cc1n[nH]c(C)c1-c1ccc(NC(=O)[C@H](Cc2cc(N3CCOCC3)ccc2Cl)NC(=O)c2ccnn2C)cc1` [Example 311, N-[(1S)-1-[(2-chloro-5-morpholino-phenyl)methyl]-2-[4-(3,5-dimethyl-1H-pyrazol-4-yl)anilino]-2-oxo-ethyl]-2-methyl-pyrazole-3-carboxamide], greater than 1000 nM; for `CN1CCOC[C@@H]1c1cccc(-c2ccc(Cl)c(C[C@H](NC(=O)c3ccnn3C)C(=O)Nc3ccc(-c4cncn4C)cc3)c2)c1` [Example 217, N-[(1S)-1-[[2-chloro-5-[3-[(3S)-4-methylmorpholin-3-yl]phenyl]phenyl]methyl]-2-[4-(3-methylimidazol-4-yl)anilino]-2-oxo-ethyl]-2-methyl-pyrazole-3-carboxamide], 100 to 1000 nM.
For the compound `Cc1n[nH]c(C)c1-c1ccc(NC(=O)[C@@H](NC(=O)C2(F)CC2)[C@@H]2CCCc3ccc(-c4ccnc(N5C[C@H]6C[C@@H]5CO6)c4)cc32)cc1` [Example 28, N-[(1S)-2-[4-(3,5-dimethyl-1H-pyrazol-4-yl)anilino]-1-[(1R)-7-[2-[(1R,4R)-2-oxa-5-azabicyclo[2.2.1]heptan-5-yl]-4-pyridyl]tetralin-1-yl]-2-oxo-ethyl]-1-fluoro-cyclopropanecarboxamide], the concentration for a half-maximal effect (EC50) is less than 100 nM.
For `Cn1cncc1-c1ccc(NC(=O)[C@H](Cc2cc(-c3ccnc(C(O)C4CC4)c3)ccc2Cl)NC(=O)C2(F)CC2)cc1` (stereo partly drawn) [Example 124, N-[(1S)-1-[[2-chloro-5-[2-[cyclopropyl(hydroxy)methyl]-4-pyridyl]phenyl]methyl]-2-[4-(3-methylimidazol-4-yl)anilino]-2-oxo-ethyl]-1-fluoro-cyclopropanecarboxamide] the value was 100 to 1000 nM; for `C[C@@H]1CNCCN1c1cc(-c2ccc(Cl)c(C[C@H](NC(=O)c3ccnn3C)C(=O)Nc3ccc(-c4cncn4C)cc3)c2)ccn1` [Example 207, N-[(1S)-1-[[2-chloro-5-[2-[(2R)-2-methylpiperazin-1-yl]-4-pyridyl]phenyl]methyl]-2-[4-(3-methylimidazol-4-yl)anilino]-2-oxo-ethyl]-2-methyl-pyrazole-3-carboxamide], less than 100 nM.
